For 42 compounds, IC50 results are on record in patent publication US20240018125A1, “CYCLIC ISOTHIOUREA DERIVATIVES AS CXCR4 MODULATORS” (ERMIUM THERAPEUTICS, priority 2020, published 2024).

pIC50: −log10 of the molar value. Counter-ions that a name gives are not always drawn.

For the experiment, the system named is peripheral blood mononuclear cells (PBMCs) from healthy donors. In words: IFN production by R848-activated PBMCs, quantified with twINNE luciferase reporter cell line. The experiment is classed as cell-based, human. The note with it: Homo sapiens, PBMC; read-out: IC50 of anti-inflammatory activity (IFN production by activated PBMCs). The method, boiled down: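 Healthy-donor PBMCs (4.10^6/mL, RPMI/10% FBS) were pre-treated with compound, then stimulated with R848 at 5 μg/mL for 24 h. Supernatants were put on twINNE cells, which carry luciferase under five ISREs, for 24 h, and Bright-Glo luminescence was read. IC50 values came from variable-slope dose-response fits.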

In the case of `c1ccc(COC2CCN(CCSC3=NCc4ccccc4N3)C2)cc1` (stereo not drawn) [Example 143, 2-((2-(3-(benzyloxy)pyrrolidin-1-yl)ethyl)thio)-1,4-dihydroquinazoline dihydrochloride], the pIC50 was ≥ 5.00.

As for `O=C(O)C1CCN(CCSC2=NCc3ccccc3N2)C1` (stereo not drawn) [Example 144, 1-(2-((1,4-dihydroquinazolin-2-yl)thio)ethyl)pyrrolidine-3-carboxylic acid dihydrochloride], the pIC50 was < 4.49. With `CN1CCC(CCSC2=NCc3ccccc3N2)C1` (stereo not drawn) [Example 145, 2-((2-(1-methylpyrrolidin-3-yl)ethyl)thio)-1,4-dihydroquinazoline dihydrochloride], the pIC50 was 4.49 to 5.00.

For `O=C(CCCSC1=NCc2ccccc2N1)N1CCCC1` [Example 147, 4-((1,4-dihydroquinazolin-2-yl)thio)-1-(pyrrolidin-1-yl)butan-1-one hydrochloride], the pIC50 is < 4.49. As for `c1ccc2c(c1)CN=C(SC1CCCC[C@H]1N1CCCC1)N2` (stereo partly drawn) [Example 148, 2-(((2R)-2-(pyrrolidin-1-yl)cyclohexyl)thio)-1,4-dihydroquinazoline dihydrochloride], the pIC50 is ≥ 5.00. As for `Fc1cccc2c1CN=C(SCCCCN1CCCC1)N2` [Example 149, 5-fluoro-2-((4-(pyrrolidin-1-yl)butyl)thio)-1,4-dihydroquinazoline dihydrochloride], the pIC50 was ≥ 5.00. As to `Clc1ccc2c(c1)NC(SCCCCN1CCCC1)=NC2` [Example 150, 7-chloro-2-((4-(pyrrolidin-1-yl)butyl)thio)-1,4-dihydroquinazoline dihydrochloride], the pIC50 is ≥ 5.00.

On to `Fc1ccc2c(c1)NC(SCCCCN1CCCC1)=NC2` [Example 151, 7-fluoro-2-((4-(pyrrolidin-1-yl)butyl)thio)-1,4-dihydroquinazoline dihydrochloride], for which the negative-log IC50 (pIC50) was ≥ 5.00. `Fc1ccc2c(c1)CN=C(SCCCCN1CCCC1)N2` [Example 152, 6-fluoro-2-((4-(pyrrolidin-1-yl)butyl)thio)-1,4-dihydroquinazoline dihydrochloride]: the pIC50 is 4.49 to 5.00.

For `Clc1cccc2c1NC(SCCCCN1CCCC1)=NC2` [Example 153, 8-chloro-2-((4-(pyrrolidin-1-yl)butyl)thio)-1,4-dihydroquinazoline dihydrochloride], the negative logarithm of the IC50 (pIC50) is ≥ 5.00.

With `c1ccc(CC2CCN(CCSC3=NCc4ccccc4N3)C2)cc1` (stereo not drawn) [Example 154, 2-((2-(3-benzylpyrrolidin-1-yl)ethyl)thio)-1,4-dihydroquinazoline dihydrochloride], the pIC50 was < 4.49. As to `c1ccc2c(c1)CN=C(SCCN1CCOCC1)N2` [Example 155, 4-(2-((1,4-dihydroquinazolin-2-yl)thio)ethyl)morpholine dihydrochloride], the pIC50 was < 4.49.

On to `F[C@H]1CCN(CCSC2=NCc3ccccc3N2)C1` [Example 156, (S)-2-((2-(3-fluoropyrrolidin-1-yl)ethyl)thio)-1,4-dihydroquinazoline dihydrochloride], for which the pIC50 is 4.49 to 5.00. As to `F[C@@H]1CCN(CCSC2=NCc3ccccc3N2)C1` [Example 157, (R)-2-((2-(3-fluoropyrrolidin-1-yl)ethyl)thio)-1,4-dihydroquinazoline dihydrochloride], the pIC50 was 4.49 to 5.00. For `CN1CCCC1CCSC1=NCc2cc(Cl)ccc2N1` (stereo not drawn) [Example 158, 6-chloro-2-((2-(1-methylpyrrolidin-2-yl)ethyl)thio)-1,4-dihydroquinazoline dihydrochloride], the negative-log IC50 (pIC50) was ≥ 5.00. Turning to `c1ccc2c(c1)CCN=C(SCCCCN1CCCC1)N2` [Example 159, 2-((4-(pyrrolidin-1-yl)butyl)thio)-4,5-dihydro-1H-benzo[d][1,3]diazepine dihydrochloride], the negative logarithm of the IC50 (pIC50) is 4.49 to 5.00. On to `CC1(C)N=C(SCCCCN2CCCC2)Nc2ccccc21` [Example 160, 4,4-dimethyl-2-((4-(pyrrolidin-1-yl)butyl)thio)-1,4-dihydroquinazoline dihydrochloride], for which the pIC50 is < 4.49.

For `Clc1ccc2c(c1)CN=C(SCCCN1CCCC1)N2` [Example 161, 6-chloro-2-((3-(pyrrolidin-1-yl)propyl)thio)-1,4-dihydroquinazoline dihydrochloride], the pIC50 was ≥ 5.00. `CC(CCCSC1=NCc2cc(Cl)ccc2N1)N1CCCC1` (stereo not drawn) [Example 162, 6-chloro-2-((4-(pyrrolidin-1-yl)pentyl)thio)-1,4-dihydroquinazoline dihydrochloride]: the negative-log IC50 (pIC50) is ≥ 5.00. As for `Brc1ccc2c(c1)CN=C(SCCCCN1CCCC1)N2` [Example 163, 6-bromo-2-((4-(pyrrolidin-1-yl)butyl)thio)-1,4-dihydroquinazoline dihydrochloride], the pIC50 is ≥ 5.00. For `Clc1ccc2c(c1)CN=C(SCCCCN1CCCCC1)N2` [Example 164, 6-chloro-2-((4-(piperidin-1-yl)butyl)thio)-1,4-dihydroquinazoline dihydrochloride], the pIC50 was ≥ 5.00.

For `CC(CCCSC1=NCc2ccccc2N1)N1CCCC1` (stereo not drawn) [Example 165, 2-((4-(pyrrolidin-1-yl)pentyl)thio)-1,4-dihydroquinazoline dihydrochloride], the pIC50 is 4.49 to 5.00. For `C[C@@H](CSC1=NCc2cc(Cl)ccc2N1)N1CCCC1` [Example 166, (S)-6-chloro-2-((2-(pyrrolidin-1-yl)propyl)thio)-1,4-dihydroquinazoline dihydrochloride], the negative logarithm of the IC50 (pIC50) is ≥ 5.00. For the compound `C[C@H](CSC1=NCc2cc(Cl)ccc2N1)N1CCCC1` [Example 167, (R)-6-chloro-2-((2-(pyrrolidin-1-yl)propyl)thio)-1,4-dihydroquinazoline dihydrochloride], the pIC50 is ≥ 5.00. Turning to `C[C@@H](CN1CCCC1)SC1=NCc2cc(Cl)ccc2N1` [Example 168, (S)-6-chloro-2-((1-(pyrrolidin-1-yl)propan-2-yl)thio)-1,4-dihydroquinazoline dihydrochloride], the pIC50 was 4.49 to 5.00. Turning to `COc1ccc(CC2(C)CN=C(SCCCCN3CCCC3)N2)cc1` (stereo not drawn) [Example 169, 5-(4-methoxybenzyl)-5-methyl-2-((4-(pyrrolidin-1-yl)butyl)thio)-4,5-dihydro-1H-imidazole dihydrochloride], the pIC50 was < 4.49. With `CC1(c2ccccc2)CN=C(SCCCCN2CCCC2)N1` (stereo not drawn) [Example 170, 5-methyl-5-phenyl-2-((4-(pyrrolidin-1-yl)butyl)thio)-4,5-dihydro-1H-imidazole dihydrochloride], the pIC50 was < 4.49. As to `c1ccc2c(c1)CN=C(SCCCCN1CCCC1)NC2` [Example 171, 3-((4-(pyrrolidin-1-yl)butyl)thio)-2,5-dihydro-1H-benzo[e][1,3]diazepine dihydrochloride], the negative-log IC50 (pIC50) is < 4.49.

Turning to `CC1(C)CN=C(SCCCCN2CCCC2)N1` [Example 172, 4,4-dimethyl-2-((4-(pyrrolidin-1-yl)butyl)thio)-4,5-dihydro-1H-imidazole dihydrochloride], the negative-log IC50 (pIC50) was < 4.49. On to `C1CN=C(SCCCCN2CCCC2)NC1` [Example 173, 2-((4-(pyrrolidin-1-yl)butyl)thio)-1,4,5,6-tetrahydropyrimidine dihydrochloride], for which the pIC50 was < 4.49.

With `CN1CCCC1CCCSC1=NCc2cc(Cl)ccc2N1` (stereo not drawn) [Example 174, 6-chloro-2-((3-(1-methylpyrrolidin-2-yl)propyl)thio)-1,4-dihydroquinazoline dihydrochloride], the pIC50 was ≥ 5.00.

Take `C(CCN1CCCC1)CSC1=NCCN1` [Example 175, 2-((4-(pyrrolidin-1-yl)butyl)thio)-4,5-dihydro-1H-imidazole dihydrochloride]: the pIC50 is < 4.49. With `Clc1ccc2c(c1)CN=C(SCCCCn1ccnc1)N2` [Example 176, 2-((4-(1H-imidazol-1-yl)butyl)thio)-6-chloro-1,4-dihydroquinazoline dihydrochloride], the pIC50 was 4.49 to 5.00. Consider `CN1CCC(CCSC2=NCc3cc(Cl)ccc3N2)C1` (stereo not drawn) [Example 177, 6-chloro-2-((2-(1-methylpyrrolidin-3-yl)ethyl)thio)-1,4-dihydroquinazoline dihydrochloride], for which the pIC50 was ≥ 5.00. Regarding `C1CCNC(SCCCCN2CCCC2)=NC1` [Example 178, 2-((4-(pyrrolidin-1-yl)butyl)thio)-4,5,6,7-tetrahydro-1H-1,3-diazepine dihydrochloride], the negative logarithm of the IC50 (pIC50) was < 4.49. Consider `CC1(C)CN=C(SCCCCN2CCCC2)NC1` [Example 179, 5,5-dimethyl-2-((4-(pyrrolidin-1-yl)butyl)thio)-1,4,5,6-tetrahydropyrimidine dihydrochloride], for which the negative logarithm of the IC50 (pIC50) is < 4.49. Take `c1ccc2c(c1)NC(SCCCCN1CCCC1)=NC21CC1` [Example 180, 2′-((4-(pyrrolidin-1-yl)butyl)thio)-1′H-spiro[cyclopropane-1,4′-quinazoline] dihydrochloride]: the pIC50 is 4.49 to 5.00. Take `c1ccc(CC2CN=C(SCCCCN3CCCC3)N2)cc1` (stereo not drawn) [Example 181, 5-benzyl-2-((4-(pyrrolidin-1-yl)butyl)thio)-4,5-dihydro-1H-imidazole dihydrochloride]: the negative-log IC50 (pIC50) was < 4.49. For the compound `c1ccc2c(c1)CCN=C(SCCN1CCCC1)N2` [Example 182, 2-((2-(pyrrolidin-1-yl)ethyl)thio)-4,5-dihydro-1H-benzo[d][1,3]diazepine dihydrochloride], the negative logarithm of the IC50 (pIC50) was 4.49 to 5.00. With `COc1ccc(CC2(C)CN=C(SCCN3CCCC3)N2)cc1` (stereo not drawn) [Example 183, 5-(4-methoxybenzyl)-5-methyl-2-((2-(pyrrolidin-1-yl)ethyl)thio)-4,5-dihydro-1H-imidazole dihydrochloride], the pIC50 is < 4.49.

Take `C1CCC2NC(SCCN3CCCC3)=NCC2C1` (stereo not drawn) [Example 184, 2-((2-(pyrrolidin-1-yl)ethyl)thio)-1,4,4a,5,6,7,8,8a-octahydroquinazoline dihydrochloride]: the pIC50 was < 4.49. Turning to `C(CCN1CCCC1)CSC1=NCC2(CC2)N1` [Example 185, 5-((4-(pyrrolidin-1-yl)butyl)thio)-4,6-diazaspiro[2.4]hept-5-ene dihydrochloride], the pIC50 was < 4.49.
